# Source: patent publication US9890147B2 (BAYER PHARMA AKTIENGESELLSCHAFT, priority 2012, dated 2018)
# Target: T1, BRD4 (BD1) (Homo sapiens, UniProt O60885)
# T1 construct: with relatively long constructs also being possible, preferably amino acids 44-168; made in house; host or cells: E. coli
# Test: Binding assay BRD4/acetylated peptide H4 (TR-FRET protein-protein interaction assay)
# Source text: Binding Assay BRD4/Acetylated Peptide H4 (“PRO”)
# To assess the BRD4 binding of the substances described in the present application, their ability to inhibit the interaction between BRD4 (BD1) and acetylated histone H4 in a dose-dependent manner was quantified (Filippakopoulos et al., Cell, 2012, 149: 214-231).
# For this purpose, use was made of a time-resolved fluorescence resonance energy transfer (TR-FRET) assay which measured binding between N-terminally His6-tagged BRD4 (BD1) (amino acids 67-152, with relatively long constructs also being possible, preferably amino acids 44-168) and a synthetic acetylated histone H4 (Ac—H4) peptide having the sequence GRGK(Ac)GGK(Ac)GLGK(Ac)GGAK(Ac)RHGSGSK-biotin. The recombinant BRD4 protein-produced according to Filippakopoulos et al., Cell, 2012, 149: 214-231—was expressed in E. coli and purified by (Ni-NTA) affinity and (Sephadex G-75) size exclusion chromatography. The Ac—H4 peptide is commercially available, for example from Biosyntan (Berlin, Germany). In a typical assay, 11 different concentrations of each substance (0.1 nM, 0.33 nM, 1.1 nM, 3.8 nM, 13 nM, 44 nM, 0.15 μM, 0.51 μM, 1.7 μM, 5.9 μM and 20 μM) were measured in duplicate on the same microtitre plate. To this end, 100-fold concentrated solutions in DMSO were prepared by serial dilution (1:3.4) of a 2 mM stock solution in a clear 384-well microtitre platte (Greiner Bio-One, Frickenhausen, Germany) 50 nl of these were transferred into a black test plate (Greiner Bio-One, Frickenhausen, Germany). The test was started by addition of 2 μl of a 2.5-fold concentrated BRD4 solution (final concentration usually 10 nM in the […] of the reaction volume) in aqueous assay buffer [50 mM HEPES pH 7.5. 50 mM sodium chloride (NaCl), 0.25 mM CHAPS and 0.05% serum albumin (BSA)] to the substances in the test plate. This was followed by a 10-minute incubation step at 22° C. to pre-equilibrate putative complexes between BRD4 and the substances.
# The mixture was then incubated in the dark for one hour at 22° C. and then for at least 3 hours and at most overnight at 4° C. Formation of BRD4/Ac—H4 complexes was determined by measuring the resonance energy transfer from the streptavidin-Eu cryptate to the anti-6His-XL665 antibody in the reaction. To this end, the fluorescence emission was measured at 620 nm and 665 nm after excitation at 330-350 nm in a TR-FRET measuring device, for example a Rubystar or Pherastar (both from BMG Lab Technologies, Offenburg, Germany) or a Viewlux (Perkin-Elmer). The ratio of the emission at 665 nm and at […] was used as an indicator for the amount of BRD4/Ac—H4 complexes formed.
# The data obtained (ratios) were normalized, with 0% inhibition corresponding to the mean of the measured values of a set of controls (usually 32 data points) comprising all reagents. Here, 50 nl of DMSO (100%) were used instead of test substances. An inhibition of 100% corresponded to the mean of the measured values of a set of controls (usually 32 data points) comprising all reagents except for BRD4. The IC50 was determined by regression analysis based on a 4-parameter equation (minimum, maximum, IC50, Hill; Y=Max+(Min−Max)/(1+(X/IC 50)^Hill)).
row,IC50,SMILES
1,3830 nM,"CNC(=O)N1N=C(c2ccc(Cl)cc2)c2ccc(N3CCCC3)cc2CC1C (racemic) [Example 234, (±)-1-(4-chlorophenyl)-N,4-dimethyl-7-(pyrrolidin-1-yl)-4,5-dihydro-3H-2,3-benzodiazepine-3-carboxamide]"
2,2690 nM,"CNC(=O)N1N=C(c2ccc(Cl)cc2)c2ccc(-c3c(C)noc3C)cc2CC1C (racemic) [Example 242, (±)-1-(4-chlorophenyl)-7-(3,5-dimethyl-1,2-oxazol-4-yl)-N,4-dimethyl-4,5-dihydro-3H-2,3-benzodiazepine-3-carboxamide]"
3,520 nM,"COC(=O)N1N=C(c2ccc(N3CCN(C)CC3)cc2)c2cc(OC)c(OC)cc2CC1C (racemic) [Example 259, Methyl(±)-7,8-dimethoxy-4-methyl-1-[4-(4-methylpiperazin-1-yl)phenyl]-4,5-dihydro-3H-2,3-benzodiazepine-3-carboxylate]"
4,40 nM,"CNC(=O)N1N=C(c2ccc(N3CCC(CCO)CC3)cc2)c2cc(OC)c(OC)cc2CC1C (racemic) [Example 183, (±)-1-{4-[4-(2-hydroxyethyl)piperidin-1-yl]phenyl}-7,8-dimcthoxy-N,4-dimethyl-4,5-dihydro-3H-2,3-benzodiazepine-3-carboxamide]"
5,610 nM,"COc1cc2c(cc1OC)C(c1ccc(N3CCN(C)CC3)cc1)=NN(C(=O)C1CC1)C(C)C2 (racemic) [Example 256, (±)-3-(cyclopropylcarbonyl)-7,8-dimethoxy-4-methyl-1-[4-(4-methylpiperazin-1-yl)phenyl]-4,5-dihydro-3H-2,3-benzodiazepine]"
6,5020 nM,"CNC(=O)N1N=C(c2ccc(Cl)cc2)c2ccc(N3CCS(=O)(=O)CC3)cc2CC1C (racemic) [Example 235, (±)-1-(4-chlorophenyl)-7-(1,1-dioxidothiomorpholin-4-yl)-N,4-dimethyl-4,5-dihydro-3H-2,3-benzodiazepine-3-carboxamide]"
7,80 nM,"CNC(=O)N1N=C(c2ccc(N3CCN(CC(F)(F)F)CC3)cc2)c2cc(OC)c(OC)cc2CC1C (racemic) [Example 197, (±)-7,8-dimethoxy-N,4-dimethyl-1-{4-[4-(2,2,2-trifluoroethyl)piperazin-1-yl]phenyl}-4,5-dihydro-3H-2,3-benzodiazepine-3-carboxamide]"
8,> 20000 nM,"CNC(=O)N1N=C(c2ccc(Cl)cc2)c2cc(OCCCN3CCN(C)CC3)ccc2C[C@H]1C [Example 164.1, (4R)-1-(4-chlorophenyl)-N,4-dimethyl-8-[3-(4-methylpiperazin-1-yl)propoxy]-4,5-dihydro-3H-2,3-benzodiazepine-3-carboxamide]"
9,690 nM,"CNC(=O)N1N=C(c2ccc(N3C[C@@H](C)O[C@@H](C)C3)cc2)c2cc(OC)c(OC)cc2C[C@@H]1C [Example 195, (4S)-1-{4-[(2R,6S)-2,6-dimethylmorpholin-4-yl]phenyl}-7,8-dimethoxy-N,4-dimethyl-4,5-dihydro-3H-2,3-benzodiazepine-3-carboxamide]"
10,480 nM,"CNC(=O)N1N=C(c2ccc(N3CCNC(=O)C3)cc2)c2cc(OC)c(OC)cc2C[C@@H]1C [Example 194, (4S)-7,8-dimethoxy-N,4-dimethyl-1-[4-(3-oxopiperazin-1-yl)phenyl]-4,5-dihydro-3H-2,3-benzodiazepine-3-carboxamide]"
11,330 nM,"CNC(=O)N1N=C(c2ccc(Cl)cc2)c2ccc(N3CCOC3=O)cc2C[C@@H]1C [Example 230.1, (4S)-1-(4-chlorophenyl)-N,4-dimethyl-7-(2-oxo-1,3-oxazolidin-3-yl)-4,5-dihydro-3H-2,3-benzodiazepine-3-carboxamide]"
12,11400 nM,"CNC(=O)N1N=C(c2ccc(Cl)cc2)c2ccc(-c3ccc(F)cc3)cc2CC1C (racemic) [Example 239, (±)-1-(4-chlorophenyl)-7-(4-fluorophenyl)-N,4-dimethyl-4,5-dihydro-3H-2,3-benzodiazepine-3-carboxamide]"
13,1730 nM,"CNC(=O)N1N=C(c2ccc(N3CCN(C(C)=O)CC3)cc2)c2ccc(OC(F)(F)F)cc2CC1C (racemic) [Example 217, (±)-1-[4-(4-acetylpiperazin-1-yl)phenyl]-N,4-dimethyl-7-(trifluoromethoxy)-4,5-dihydro-3H-2,3-benzodiazepine-3-carboxamide]"
14,1100 nM,"CCC1Cc2cc(OC)c(OC)cc2C(c2ccc(N3CCOCC3)cc2)=NN1C(=O)NC (racemic) [Example 208, (±)-4-ethyl-7,8-dimethoxy-N-methyl-1-[4-(morpholin-4-yl)phenyl]-4,5-dihydro-3H-2,3-benzodiazepine-3-carboxamide]"
15,30 nM,"CNC(=O)N1N=C(c2ccc(N3CC[C@H](O)C3)cc2)c2cc(OC)c(OC)cc2C[C@@H]1C [Example 190.1, (4S)-1-{4-[(3S)-3-hydroxypyrrolidin-1-yl]phenyl}-7,8-dimethoxy-N,4-dimethyl-4,5-dihydro-3H-2,3-benzodiazepine-3-carboxamide]"
16,1220 nM,"CCC1Cc2cc(OC)c(OC)cc2C(c2ccc(N3CC(F)C3)cc2)=NN1C(=O)NC (racemic) [Example 204, (±)-4-ethyl-1-[4-(3-fluoroazetidin-1-yl)phenyl]-7,8-dimethoxy-N-methyl-4,5-dihydro-3H-2,3-benzodiazepine-3-carboxamide]"
17,5290 nM,"CNC(=O)N1N=C(c2cc(N3CCN(C)CC3)c(Br)cc2Br)c2cc(OC)c(OC)cc2CC1C (racemic) [Example 252, (±)-1-[2,4-Dibromo-5-(4-methylpiperazin-1-yl)phenyl]-7,8-dimethoxy-N,4-dimethyl-4,5-dihydro-3H-2,3-benzodiazepine-3-carboxamide]"
18,9870 nM,"CNC(=O)N1N=C(c2ccc(N3CCC(O)CC3)cc2)c2cc(OC)c(OC)cc2C[C@H]1C [Example 130.2, (4R)-1-[4-(4-Hydroxypiperidin-1-yl)phenyl]-7,8-dimethoxy-N,4-dimethyl-4,5-dihydro-3H-2,3-benzodiazepine-3-carboxamide]"
19,6490 nM,"CCOC(=O)N1N=C(c2ccc(N3CCN(C)CC3)cc2)c2cc(OC)c(OC)cc2CC1C (racemic) [Example 260, Ethyl (±)-7,8-dimethoxy-4-methyl-1-[4-(4-methylpiperazin-1-yl)phenyl]-4,5-dihydro-3H-2,3-benzodiazepine-3-carboxylate]"
20,390 nM,"COc1cc2c(cc1OC)C(c1ccc(N3CCN(C)CC3)cc1)=NN(C(C)=O)[C@@H](C)C2 (single isomer, unassigned) [Example 245.1]"
21,7690 nM,"CNC(=O)N1N=C(c2ccc(-c3c(C)nn(C)c3C)cc2)c2cc(OC)c(OC)cc2CC1C(C)C (racemic) [Example 224, (±)-4-isopropyl-7,8-dimethoxy-N-methyl-1-[4-(1,3,5-trimethyl-1H-pyrazol-4-yl)phenyl]-4,5-dihydro-3H-2,3-benzodiazepine-3-carboxamide]"
22,130 nM,"CNC(=O)N1N=C(c2ccc(N3CCN(C)C(=O)C3)cc2)c2ccc(N3CCN(C)C(=O)C3)cc2CC1C (racemic) [Example 238, (±)-N,4-dimethyl-7-(4-methyl-3-oxopiperazin-1-yl)-1-[4-(4-methyl-3-oxopiperazin-1-yl)phenyl]-4,5-dihydro-3H-2,3-benzodiazepine-3-carboxamide]"
23,1490 nM,"CCNC(=O)N1N=C(c2ccc(N3CCN(C)CC3)cc2)c2cc(OC)c(OC)cc2CC1C (racemic) [Example 261, (±)-N-Ethyl-7,8-dimethoxy-4-methyl-1-[4-(4-methylpiperazin-1-yl)phenyl]-4,5-dihydro-3H-2,3-benzodiazepine-3-carboxamide]"
24,6280 nM,"CCC1Cc2cc(OC)c(OC)cc2C(c2ccc(N3CCCCC3=O)cc2)=NN1C(=O)NC (racemic) [Example 227, (±)-4-ethyl-7,8-dimethoxy-N-methyl-1-[4-(2-oxopiperidin-1-yl)phenyl]-4,5-dihydro-3H-2,3-benzodiazepine-3-carboxamide]"
